In PMC7077228 (Viruses, 2020):
Structures can show the parent of a compound that is named as a salt. Where two headings read alike, the source gives them in different places.

Columns and labels:
[1] = test system: H5N1 IAV (A/Duck/Guangdong/99); test: microbe, parasite or virus in culture; assay type: cell-based, influenza A virus
A549 cells = test: MTT cytotoxicity assay; settings: for CC50: MTT, 24 h of compound treatment
[2] = test system: PR8 (H1N1) IAV (A/Puerto Rico/8/34); test: microbe, parasite or virus in culture; assay type: cell-based; settings: Influenza A virus, A549
[3] = test system: H9N2 IAV (A/Chicken/Guangdong/16/1996); test: microbe, parasite or virus in culture; assay type: cell-based; settings: Influenza A virus, H9N2, A549, in Gallus gallus
[4] = test system: H3N2 IAV (A/Guangdong/Dongguan/1100/2006); test: microbe, parasite or virus in culture; assay type: cell-based; settings: Influenza A virus, H3N2, A549
[5] = test system: IAV (H1N1, H5N1, H9N2 and H3N2); test: microbe, parasite or virus in culture; assay type: cell-based, influenza A virus
H5N1 IAV [6] = assay type: cell-based, influenza A virus
H5N1 IAV [7] = assay type: cell-based, influenza A virus; remark: listed apart in the source
H5N1 IAV [8] = assay type: cell-based, influenza A virus; remark: listed apart in the source
[9] = test system: A/Duck/Guangdong/99(H5N1) HA; assay type: cell-based, influenza A virus
[10] = target: Recombinant influenza HA protein from A/Vietnam/1203/2004 (H5N1) (Influenza A virus (A/Vietnam/1203/2004(H5N1)), UniProt Q5EP31); test: biochemical; assay type: binding
[11] = target: FKBP12 (FK506 binding protein 1A, 12 kDa) (Homo sapiens, UniProt P62942)
Chain of FKBP12 (FK506 binding protein 1A, 12 kDa) (P62942 whole entry): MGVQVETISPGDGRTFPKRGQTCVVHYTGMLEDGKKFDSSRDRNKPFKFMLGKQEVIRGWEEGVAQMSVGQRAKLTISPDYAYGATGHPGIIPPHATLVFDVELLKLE

[12] = test system: H5N1 IAV HA-induced hemolysis; test: microbe, parasite or virus in culture; assay type: cell-based; settings: Influenza A virus, H5N1, in Gallus gallus, pH 5.2, read-out: IC50 hemolysis inhibition
H5N1 IAV [13] = assay type: cell-based, influenza A virus; remark: listed apart in the source

CC1(C)CC[C@]2(C(=O)O)CC[C@]3(C)C(=CC[C@@H]4[C@@]5(C)CC[C@H](O)C(C)(C)[C@@H]5CC[C@]43C)[C@@H]2C1 [OA-0, oleanolic acid]
EC50 [1]: 14.2 ± 1.9 µM
SI (selectivity index), ratio of CC50 to EC50 [1]: 4.7
EC50 ([1]; Influenza A virus, H5N1, A549): ≤ 14.2 µM
CC50 (A549 cells): 67.4 ± 4.8 µM
CC50 (A549 cells; listed as oleanolic acid): ≥ 31.1 µM

CNC(=O)[C@]12CCC(C)(C)C[C@H]1C1=CC[C@@H]3[C@@]4(C)CC[C@H](O[C@@H]5O[C@H](CO)[C@@H](O[C@@H]6O[C@@H](C)[C@H](O)[C@@H](O)[C@H]6O)[C@H](O)[C@H]5O[C@@H]5O[C@@H](C)[C@H](O)[C@@H](O)[C@H]5O)C(C)(C)[C@@H]4CC[C@@]3(C)[C@]1(C)CC2 [OA-10]
SI (selectivity index), ratio of CC50 to EC50 [1]: >45
EC50 ([1]; Influenza A virus, H5N1, A549): 14 ± 2.3 µM
EC50 [2]: 6.7 ± 1.4 µM
EC50 [3]: 15.3 ± 2.5 µM
EC50 [4]: 19.6 ± 3.7 µM
progeny virus titer on PR8, H9N2 and H3N2 infection [5]: reduced progeny virus titer
EC50 ([5]; Influenza A virus, H1N1|H3N2|H5N1|H9N2, A549, read-out: EC50 range across IAV subtypes): 6.7 to 19.6 µM
H5N1 IAV NP RNA levels (H5N1 IAV [6]): significantly inhibited
reduction in progeny virus production (H5N1 IAV [6]): 1.8 log
effect on IAV infection after co-incubation at 4 °C (virus binding) (H5N1 IAV [7]): did not affect IAV infection
effect of combination on progeny virus titer and NP production (H5N1 IAV [8]): synergistic effect
progeny virus yield and NP protein expression, co-treatment (H5N1 IAV [8]): mild but significant reduction
progeny virus yield and viral NP production, pre-treatment (H5N1 IAV [8]): did not reduce progeny virus yield and viral NP production
progeny virus yield, post-treatment (H5N1 IAV [8]): one log reduction
inhibition of HA adsorption to chicken RBCs [9]: did not inhibit HA adsorption to chicken RBCs
inhibition of H5N1 virus adsorption to chicken RBCs ([9]; concentrations ≥40 µM): partially blocked
Kd [10]: 2.98 pM
interaction with negative control protein [11]: did not interact
IC50 [12]: 26 µM
cytotoxicity at concentrations ≤ 80 µM (A549 cells; after 24, 48 or 72 h of treatment): No obvious cytotoxicity

CCOC(=O)c1c(CSc2ccccc2)n(C)c2cc(Br)c(O)c(CN(C)C)c12 [arbidol, Arbidol hydrochloride, reference compound]
IC50 [12]: 51 µM

CCC(CC)[C@H](NC(C)=O)[C@@H]1[C@H](O)[C@@H](C(=O)O)C[C@H]1N=C(N)N [peramivir, Peramivir, reference compound]
inhibition on IAV infections (positive control) (H5N1 IAV [6]): significant inhibition
progeny virus yield and NP protein expression, co-treatment (H5N1 IAV [8]): more significant inhibition
progeny virus yield, post-treatment (H5N1 IAV [8]): more significant inhibition

NC(=O)c1ncn([C@@H]2O[C@H](CO)[C@@H](O)[C@H]2O)n1 [ribavirin, Ribavirin hydrochloride, reference compound]
progeny virus yield, post-treatment (H5N1 IAV [8]): inhibition only in the post-treatment mode
inhibition of viral replication, compound added after 4 hpi (H5N1 IAV [13]): no inhibition
